Source: patent EP0745599A2, “1-(3-Heterocyclylphenyl)-s-triazine-2,4,6-oxo or thiotrione herbicidal agents” (American Cyanamid Company, priority 1995, dated 1996)

What was measured:
Type in all cases: in vivo
Settings in all cases: rated four to five weeks after treatment
IPOMOEA SPP. = assay: Preemergence herbicidal evaluation, IPOSS (Morningglory Spp.); set-up: key to IPOSS: visual rating scale 0-9 vs control
Excerpt: (§1) Results of herbicide evaluation are expressed on a rating scale (0-9). The scale is based upon a visual observation of plant stand, vigor, malformation, size, chlorosis and overall plant appearance as compared with a control.
(§2) The preemergence herbicidal activity of the test compounds of the present invention is exemplified by the following tests in which the seeds of a variety of monocotyledonous and dicotyledonous plants are separately mixed with potting soil and planted on top of approximately one inch of soil in separate pint cups. After planting, the cups are sprayed with the selected aqueous acetone solution containing test compound in sufficient quantity to provide the equivalent of about 0.125 to 0.50 kg per hectare of test compound per cup. The treated cups are then placed on greenhouse benches, watered and cared for in accordance with conventional greenhouse procedures. From four to five weeks after treatment, the tests are terminated and each cup is examined and rated according to the rating system provided in Example 42.

[1] = test system: SETARIA VIRIDIS, (L) BEAU; assay: Postemergence herbicidal evaluation, SETVI (Foxtail, Green)
Procedure: (§3) In the tests, seedling plants are grown in jiffy flats for about two weeks. The test compounds are dispersed in 50/50 acetone/water mixtures containing 0.5% TWEEN®20, a polyoxyethylene sorbitan monolaurate surfactant of Atlas Chemical Industries, in sufficient quantities to provide the equivalent of about 0.125 kg to 0.500 kg per hectare of active compound when applied to the plants through a spray nozzle operating at 40 psi for a predetermined time. After spraying, the plants are placed on greenhouse benches and are cared for in the usual manner, commensurate with conventional greenhouse practices. From four to five weeks after treatment, the seedling plants are examined and rated according to the rating system set forth below. Where more than one test is involved for a given compound, the data are averaged.
as §1

CHENOPODIUM ALBUM, L. = assay: Preemergence herbicidal evaluation, CHEAL (Lambsquarters, Common); set-up: key to CHEAL: visual rating scale 0-9 vs control
Excerpt: as §1, §2

[2] = test system: ECHINOCHLOA CRUS-GALLI, (L) BEAU; assay: Preemergence herbicidal evaluation, ECHCG (Barnyardgrass); set-up: key to ECHCG: visual rating scale 0-9 vs control
Excerpt: as §1, §2

[3] = test system: AMBROSIA ARTEMISIIFOLIA, L.; assay: Preemergence herbicidal evaluation, AMBEL (Ragweed, Common); set-up: key to AMBEL: visual rating scale 0-9 vs control
Excerpt: as §1, §2

ZEA MAYS L. = assay: Preemergence herbicidal evaluation, ZEAMX (Corn, Field); set-up: key to ZEAMX: visual rating scale 0-9 vs control
Excerpt: as §1, §2

[4] = test system: ABUTILON THEOPHRASTI, MEDIC.; assay: Preemergence herbicidal evaluation, ABUTH (Velvetleaf); set-up: key to ABUTH: visual rating scale 0-9 vs control
Excerpt: as §1, §2

CASSIA OBTUSIFOLIA, L. [5] = assay: Preemergence herbicidal evaluation, CASOB (Sicklepod); set-up: key to CASOB: visual rating scale 0-9 vs control
Excerpt: as §1, §2

CASSIA OBTUSIFOLIA, L. [6] = assay: Postemergence herbicidal evaluation, CASOB (Sicklepod)
Procedure: as §3, §1

GALIUM APARINE = assay: Preemergence herbicidal evaluation, GALAP (Galium); set-up: key to GALAP: visual rating scale 0-9 vs control
Excerpt: as §1, §2

[7] = test system: GLYCINE MAX(L)MERR. CV. WILLIAMS; assay: Preemergence herbicidal evaluation, GLXMAW (Soybean, Williams); set-up: key to GLXMAW: visual rating scale 0-9 vs control
Excerpt: as §1, §2

[8] = test system: ECHINOCHLOA CRUS-GALLI, (L) BEAU; assay: Postemergence herbicidal evaluation, ECHCG (Barnyardgrass)
Procedure: as §3, §1

[9] = test system: SETARIA VIRIDIS, (L) BEAU; assay: Preemergence herbicidal evaluation, SETVI (Foxtail, Green); set-up: key to SETVI: visual rating scale 0-9 vs control
Excerpt: as §1, §2

[10] = test system: TRITICUM AESTIVUM, CV. APOLLO; assay: Preemergence herbicidal evaluation, TRZAWO (Wheat, Winter, CV. APOLLO); set-up: key to TRZAWO: visual rating scale 0-9 vs control
Excerpt: as §1, §2

[11] = test system: ORYZA SATIVA, L. TEBONNET; assay: Preemergence herbicidal evaluation, ORYSAT (Rice, Tebonnet); set-up: key to ORYSAT: visual rating scale 0-9 vs control
Excerpt: as §1, §2

[12] = test system: ABUTILON THEOPHRASTI, MEDIC.; assay: Postemergence herbicidal evaluation, ABUTH (Velvetleaf)
Procedure: as §3, §1

[13] = test system: TRITICUM AESTIVUM, CV. APOLLO; assay: Postemergence herbicidal evaluation, TRZAWO (Wheat, Winter, CV. APOLLO)
Procedure: as §3, §1

## CCOC(=O)Cn1c(=O)[nH]c(=O)n(-c2ccc(F)c(N3C(=O)C4=C(CCCC4)C3=O)c2)c1=O [Compound 9, Ethyl 3-[3-(1-cyclohexene-1,2-dicarbox-imido)-4-fluorophenyl]tetrahydro-2,4,6-trioxo-s-triazine-1(2H)-acetate]
IPOMOEA SPP.; 0.125 kg/ha
  Herbicide rating (0-9) IPOSS: 0.0
IPOMOEA SPP.; 0.250 kg/ha
  Herbicide rating (0-9) IPOSS: 0.0
IPOMOEA SPP.; 0.500 kg/ha
  Herbicide rating (0-9) IPOSS: 0.0
[1]; 0.125 kg/ha
  Herbicide rating (0-9) SETVI: 0.0
[1]; 0.250 kg/ha
  Herbicide rating (0-9) SETVI: 0.0
[1]; 0.500 kg/ha
  Herbicide rating (0-9) SETVI: 0.0
CHENOPODIUM ALBUM, L.; 0.125 kg/ha
  Herbicide rating (0-9) CHEAL: 0.0
CHENOPODIUM ALBUM, L.; 0.250 kg/ha
  Herbicide rating (0-9) CHEAL: 0.0
CHENOPODIUM ALBUM, L.; 0.500 kg/ha
  Herbicide rating (0-9) CHEAL: 0.0
[2]; 0.125 kg/ha
  Herbicide rating (0-9) ECHCG: 0.0
[2]; 0.250 kg/ha
  Herbicide rating (0-9) ECHCG: 0.0
[2]; 0.500 kg/ha
  Herbicide rating (0-9) ECHCG: 0.0
[3]; 0.125 kg/ha
  Herbicide rating (0-9) AMBEL: 0.0
[3]; 0.250 kg/ha
  Herbicide rating (0-9) AMBEL: 0.0
[3]; 0.500 kg/ha
  Herbicide rating (0-9) AMBEL: 0.0
ZEA MAYS L.; 0.125 kg/ha
  Herbicide rating (0-9) ZEAMX: 0.0
ZEA MAYS L.; 0.250 kg/ha
  Herbicide rating (0-9) ZEAMX: 0.0
ZEA MAYS L.; 0.500 kg/ha
  Herbicide rating (0-9) ZEAMX: 0.0
[4]; 0.125 kg/ha
  Herbicide rating (0-9) ABUTH: 0.0
[4]; 0.250 kg/ha
  Herbicide rating (0-9) ABUTH: 0.0
[4]; 0.500 kg/ha
  Herbicide rating (0-9) ABUTH: 0.0
CASSIA OBTUSIFOLIA, L. [5]; 0.125 kg/ha
  Herbicide rating (0-9) CASOB: 0.0
CASSIA OBTUSIFOLIA, L. [5]; 0.250 kg/ha
  Herbicide rating (0-9) CASOB: 0.0
CASSIA OBTUSIFOLIA, L. [5]; 0.500 kg/ha
  Herbicide rating (0-9) CASOB: 0.0
CASSIA OBTUSIFOLIA, L. [6]; 0.125 kg/ha
  Herbicide rating (0-9) CASOB: 0.0
CASSIA OBTUSIFOLIA, L. [6]; 0.250 kg/ha
  Herbicide rating (0-9) CASOB: 0.0
CASSIA OBTUSIFOLIA, L. [6]; 0.500 kg/ha
  Herbicide rating (0-9) CASOB: 0.0
GALIUM APARINE; 0.125 kg/ha
  Herbicide rating (0-9) GALAP: 0.0
GALIUM APARINE; 0.250 kg/ha
  Herbicide rating (0-9) GALAP: 0.0
GALIUM APARINE; 0.500 kg/ha
  Herbicide rating (0-9) GALAP: 0.0
[7]; 0.125 kg/ha
  Herbicide rating (0-9) GLXMAW: 0.0
[7]; 0.250 kg/ha
  Herbicide rating (0-9) GLXMAW: 0.0
[7]; 0.500 kg/ha
  Herbicide rating (0-9) GLXMAW: 0.0
[8]; 0.125 kg/ha
  Herbicide rating (0-9) ECHCG: 0.0
[8]; 0.250 kg/ha
  Herbicide rating (0-9) ECHCG: 0.0
[8]; 0.500 kg/ha
  Herbicide rating (0-9) ECHCG: 0.0
[9]; 0.125 kg/ha
  Herbicide rating (0-9) SETVI: 0.0
[9]; 0.250 kg/ha
  Herbicide rating (0-9) SETVI: 0.0
[9]; 0.500 kg/ha
  Herbicide rating (0-9) SETVI: 0.0
[10]; 0.125 kg/ha
  Herbicide rating (0-9) TRZAWO: 0.0
[10]; 0.250 kg/ha
  Herbicide rating (0-9) TRZAWO: 0.0
[10]; 0.500 kg/ha
  Herbicide rating (0-9) TRZAWO: 0.0
[11]; 0.125 kg/ha
  Herbicide rating (0-9) ORYSAT: 0.0
[11]; 0.250 kg/ha
  Herbicide rating (0-9) ORYSAT: 0.0
[11]; 0.500 kg/ha
  Herbicide rating (0-9) ORYSAT: 0.0

## CC(C)OC(=O)Cn1c(=O)n(C)c(=O)n(-c2cc(N=c3sc(=O)n4n3CCCC4)c(F)cc2Cl)c1=O [Compound 13, Isopropyl 3-{2-chloro-4-fluoro-5-[(tetra-hydro-3-oxo-1H,3H-[1,3,4]thiadiazolo[3,4-a]pyridazin-1-ylidene)amino]phenyl}tetra-hydro-5-methyl-2,4,6-trioxo-s-triazine-1(2H)-acetate]
IPOMOEA SPP.; Rate 0.125 kg/ha
  IPOSS: 2.0
IPOMOEA SPP.; Rate 0.250 kg/ha
  IPOSS: 5.0
IPOMOEA SPP.; Rate 0.500 kg/ha
  IPOSS: 6.0
[1]; 0.125 kg/ha
  Herbicide rating (0-9) SETVI: 1.0
[1]; 0.250 kg/ha
  Herbicide rating (0-9) SETVI: 1.0
[1]; 0.500 kg/ha
  Herbicide rating (0-9) SETVI: 1.0
CHENOPODIUM ALBUM, L.; Rate 0.125 kg/ha
  CHEAL: 9.0
CHENOPODIUM ALBUM, L.; Rate 0.250 kg/ha
  CHEAL: 9.0
CHENOPODIUM ALBUM, L.; Rate 0.500 kg/ha
  CHEAL: 9.0
[2]; Rate 0.125 kg/ha
  ECHCG: 0.0
[2]; Rate 0.250 kg/ha
  ECHCG: 0.0
[2]; Rate 0.500 kg/ha
  ECHCG: 0.0
[12]; 0.125 kg/ha
  Herbicide rating (0-9) ABUTH: 9.0
[12]; 0.250 kg/ha
  Herbicide rating (0-9) ABUTH: 9.0
[12]; 0.500 kg/ha
  Herbicide rating (0-9) ABUTH: 9.0
[3]; Rate 0.125 kg/ha
  AMBEL: 0.0
[3]; Rate 0.250 kg/ha
  AMBEL: 3.0
[3]; Rate 0.500 kg/ha
  AMBEL: 8.0
ZEA MAYS L.; Rate 0.125 kg/ha
  ZEAMX: 0.0
ZEA MAYS L.; Rate 0.250 kg/ha
  ZEAMX: 0.0
ZEA MAYS L.; Rate 0.500 kg/ha
  ZEAMX: 1.0
[4]; Rate 0.125 kg/ha
  ABUTH: 9.0
[4]; Rate 0.250 kg/ha
  ABUTH: 9.0
[4]; Rate 0.500 kg/ha
  ABUTH: 9.0
CASSIA OBTUSIFOLIA, L. [5]; Rate 0.125 kg/ha
  CASOB: 5.0
CASSIA OBTUSIFOLIA, L. [5]; Rate 0.250 kg/ha
  CASOB: 9.0
CASSIA OBTUSIFOLIA, L. [5]; Rate 0.500 kg/ha
  CASOB: 9.0
GALIUM APARINE; Rate 0.125 kg/ha
  GALAP: 9.0
GALIUM APARINE; Rate 0.250 kg/ha
  GALAP: 8.0
GALIUM APARINE; Rate 0.500 kg/ha
  GALAP: 9.0
[7]; Rate 0.125 kg/ha
  GLXMAW: 0.0
[7]; Rate 0.250 kg/ha
  GLXMAW: 0.0
[7]; Rate 0.500 kg/ha
  GLXMAW: 0.0
[8]; 0.125 kg/ha
  Herbicide rating (0-9) ECHCG: 0.0
[8]; 0.250 kg/ha
  Herbicide rating (0-9) ECHCG: 0.0
[8]; 0.500 kg/ha
  Herbicide rating (0-9) ECHCG: 0.0
[9]; Rate 0.125 kg/ha
  SETVI: 0.0
[9]; Rate 0.250 kg/ha
  SETVI: 7.0
[9]; Rate 0.500 kg/ha
  SETVI: 7.0
[10]; Rate 0.125 kg/ha
  TRZAWO: 0.0
[10]; Rate 0.250 kg/ha
  TRZAWO: 0.0
[10]; Rate 0.500 kg/ha
  TRZAWO: 1.0
[11]; Rate 0.125 kg/ha
  ORYSAT: 0.0
[11]; Rate 0.250 kg/ha
  ORYSAT: 1.0
[11]; Rate 0.500 kg/ha
  ORYSAT: 2.0
[13]; 0.125 kg/ha
  Herbicide rating (0-9) TRZAWO: 3.5
[13]; 0.250 kg/ha
  Herbicide rating (0-9) TRZAWO: 3.5
[13]; 0.500 kg/ha
  Herbicide rating (0-9) TRZAWO: 3.5
